pIC50: −log10 of the molar value.

For series [1], the system named is LLC tumor. Description: In vivo tumor prevention study. Set-up: species or system C57Bl/6 mice. As to conditions: s.c. co-injection with LLC cells. The method, then:
To access the ability of Cpt-NCs to prevent establishment of a murine lung cancer in an in vivo model, Cpt-NCs were evaluated in the rapidly growing subcutaneous (s.c.) LLC tumor model in C57Bl/6 female mice. The ability of Cpt50 (5 mg/kg) to prevent LLC tumor establishment and growth was assessed by comparing to free Cpt (5 mg/kg) and LLC cancer cells alone without any treatment. The mice were s.c. injected with the mixture of [LLC and Cpt50], [LLC and Cpt] or LLC alone Animals were monitored clinically and the tumors were measured daily without knowledge of the treatment received.
Female C57Bl/6 mice, 12-13 weeks old, were anesthetized, shaved, and prepared for implantation of the tumor cells. LLC cells were collected from culture, and 750,000 cells were then mixed with Cpt50 and immediately injected subcutaneously into one flank of a mouse. The dose of equivalent Cpt was 5 mg/kg. Equivalent injections of cells with free CPT solubilized with Tween 80 (5%)/DMSO (10%) or PBS were also performed (n=5). The simultaneous injection procedure is required to assure that the cancer cells and the treatment are delivered to the same subcutaneous pocket as it would be easy to accidentally inject into different spaces when performing two separate injections.

The subject of series [2] is LLC tumor. Description: In vivo tumor reduction study, single i.v. injection. On the set-up: species or system C57Bl/6 mice. The following applies: emulsified Cpt 30 mg/kg i.v.; all animals reached end point at about day 5. The method, then: The efficacy of the drug conjugated silica NPs was next evaluated using xenograft models of LLC tumor developed by s.c. injection of LLC cells in the flank of C57BL/6 mice. […] Using Cpt as a reference point, the following regimens were administrated by a single i.v. injection: a, PBS; b, PEGylated blank silica NPs; c, emulsified Cpt, 30 mg/kg; d, Cpt-NP, 200 nm, 25 mg/kg; e, Cpt-NP, 20 nm, 25 mg/kg. Tumor size and body weight were then monitored for 10 days. […] Both Cpt-NPs 20 nm and 200 nm in diameter delayed tumor growth at Day 7 and 6, respectively, with statistical significance comparing with control group receiving PBS (p<0.05 by t-test). […] All animals in free Cpt group reached end point with >20% body weight loss at about day 5.
4.5. In vivo Tumor Reduction Study. Female C57Bl/6 mice, 8-week old, were anesthetized, shaved, and prepared for implantation of the tumor cells. […] After two weeks when tumors had reached ˜300 mm^3, mice were divided into five groups of five mice, minimizing weight and tumor size difference. Tumor-bearing mice were treated by intravenous injection of PBS (1×), PEGylated blank silica NPs (250 mg/kg), emulsified free CPT (Tween 80 (5%)/DMSO (10%) in PBS (1×), 30 mg/kg), CPT-NP (200 nm, 25 mg/kg) or CPT-NP (20 nm, 25 mg/kg). […]

The test system of series [3] is LNCaP prostate adenocarcinoma cells. Description: In vitro toxicity (MTT assay). It counts as cell-based. The following applies: Homo sapiens, MTT assay after 96 h, CPT or equivalent CPT. The method, then: 3.3. In vitro toxicity (MTT assay). LNCaP prostate adenocarcinoma cell lines were obtained from ATCC (Manassas, Va., USA). Cells were seeded in 96-well plates at 5,000 cells/well and grown in medium containing 10% fetal bovine serum at 37° C. for 24 h in a humidified 5% CO2 atmosphere. The medium was replaced with fresh medium containing CPT, CPT-NPs in concentrations ranging from 1 nM to 10 μM of CPT or equivalent CPT (CPT-NPs). At each concentration, six wells per plate were treated. The effect of the compounds on cell growth was measured by the MTT assay after 96 h. The medium was removed, the cells were rinsed with PBS, MTT solution was added at a concentration of 0.5 mg/mL, and the plates were incubated for 4 hours at 37° C. The medium was removed and the formazan crystals were solubilized in MTT solubilization solution. Absorbance was measured at 560 nm using a Victor V microplate reader (Perkin Elmer, Waltham, Mass.). The percentage of cell survival was calculated relative to untreated cells, and IC50 values were determined from plots of cell survival versus dose (Table 4).
On the technique in general: Formazan colour is commonly taken as a measure of viable cells.

The next series has as its system MCF-7 tumors. Description: In vivo tumor reduction study, MCF-7 xenograft.

Method for MCF-7 tumors: To further study the effect of particle size, a xenograft human breast cancer model was chosen. Subcutaneous MCF-7 tumors developed on the flank of athymic nude mice were used to evaluate the antitumor efficacy of the drug-silica nanoconjugates with different sizes. The nude mice were implanted with an estrogen pellet and 1,000,000 MCF-7 cells per site. After tumors had developed to ˜40 mm^3, comparative efficacy studies were performed by dividing animals into six groups (n=20 or 24) to minimize weight and tumor size differences among the groups.
Female athymic nude, OVX, 9-week old mice were anesthetized, and prepared for implantation of the tumor cells. […]
After dosing, the animals were monitored closely, and measurements of the tumor size for each animal were performed at regular intervals using calipers without knowledge of which injection each animal had received. The tumor volume for each time point was calculated according to the formula (length)×(width)/2, where the long axis is the length, the short axis is the width. […] When an animal exited the study due to tumor size or treatment related death, the final tumor size recorded for the animal was included with the data used to calculate the mean size at subsequent time point.

For `CC[C@@]1(O)C(=O)OCc2c1cc1n(c2=O)Cc2cc3ccccc3nc2-1` [CPT, Camptothecin], in the series with LLC tumor [1] (5 mg/kg), the “Day of statistically significant difference vs LLC group” value turned out to be 20 days. Also, the Tumor growth prevention result in the series with LLC tumor [1] (5 mg/kg equivalent Cpt) was “complete inhibition of tumor growth after Day 20”. The same molecule had a body weight loss in the series on LLC tumor [2] greater than 20%. Further, in series [3], the pIC50 – broadly, the negative decadic logarithm of the IC50, by convention in mol/L – was 8.15.

Regarding `CCc1c2c(nc3ccc(OC(=O)N4CCC(N5CCCCC5)CC4)cc13)-c1cc3c(c(=O)n1C2)COC(=O)[C@]3(O)CC` [Irinotecan], the “Day from which tumor growth delay was significant vs PBS group” value in the series with MCF-7 tumors (NCs 20 mg/kg i.v. Q4d×3, Irinotecan 100 mg/kg i.p. Qwk×3, *p<0.05) turned out to be 8 days. Further, the “Body weight / systemic toxicity” value with MCF-7 tumors (NCs 20 mg/kg, Irinotecan 100 mg/kg) is “Significant body weight loss”.

The values are drawn from patent publication US9028880B2, “Silica nanoparticle agent conjugates” (priority 2010, dated 2015).
